# According to ChEMBL document CHEMBL5143618, “Design, synthesis, and antitumor activity evaluation of novel acyl sulfonamide spirodienones” (Bioorg Med Chem, 2022):
# The source made the active and inactive calls. The rule behind the calls is not given here.
# Assays:
# MDA-MB-231 [1] = assay: Antiproliferative activity against human MDA-MB-231 cells assessed as inhibition of cell growth; assay type: functional, cell-based
# HeLa [2] = assay: Antiproliferative activity against human HeLa cells assessed as inhibition of cell growth; assay type: functional, cell-based
# A549 [3] = assay: Antiproliferative activity against human A549 cells assessed as inhibition of cell growth; assay type: functional, cell-based
# 4T1 [4] = assay: Antitumor activity against mouse 4T1 cells inoculated orthotopic mouse assessed as reduction in tumor volume at 10 mg/kg, ip administered every day measured after 14 days (reference value: 623 mm3); assay type: functional; details: time 14 day
# [5] = Acute toxicity in female Kunming mouse assessed as clinical signs of toxicity in fur at 100 to 250 mg/kg, ip single dose measured up to 2 weeks; assay type: organism-based; details: in vivo, 336 h, dose 100-250 mg/kg
# [6] = Acute toxicity in male Kunming mouse assessed as clinical signs of toxicity in fur at 100 to 250 mg/kg, ip single dose measured up to 2 weeks; assay type: organism-based; details: in vivo, 336 h, dose 100-250 mg/kg
# [7] = Acute toxicity in Kunming mouse assessed as mortality at 200 mg/kg, ip single dose; assay type: organism-based; details: in vivo, read-out: Activity
# [8] = Acute toxicity in female Kunming mouse assessed as drug tolerance at 100 to 250 mg/kg, ip single dose measured up to 2 weeks; assay type: organism-based; details: in vivo, 336 h, dose 100-250 mg/kg
# [9] = Acute toxicity in Kunming mouse assessed as pathological changes in liver at 100 to 250 mg/kg, ip single dose by hematoxylin and eosin staining based assay; assay type: organism-based; details: in vivo, dose 100-250 mg/kg
# [10] = Acute toxicity in Kunming mouse assessed as mortality at 250 mg/kg, ip single dose; assay type: organism-based; details: in vivo, read-out: Activity
# MDA-MB-231 [11] = assay: Induction of apoptosis in human MDA-MB-231 cells assessed as viable cells at 10 uM incubated for 24 hrs by annexin V-FITC and PI staining based flow cytometry analysis (reference value: 93.6 %); assay type: functional; details: read-out: Activity
# [12] = Toxicity in orthotopic mouse inoculated with mouse 4T1 cells assessed as side effects at 10 mg/kg, ip administered every day measured after 14 days; assay type: organism-based; details: in vivo, 336 h, time 14 day
# [13] = Toxicity in orthotopic mouse inoculated with mouse 4T1 cells assessed as appearance of lesions in spleen at 10 mg/kg, ip administered every day measured after 14 days by hematoxylin and eosin staining based assay; assay type: organism-based; details: in vivo, 336 h, time 14 day
# [14] = Acute toxicity in female Kunming mouse assessed as clinical signs of toxicity in eyes at 100 to 250 mg/kg, ip single dose measured up to 2 weeks; assay type: organism-based; details: in vivo, 336 h, dose 100-250 mg/kg
# MDA-MB-231 [15] = assay: Induction of apoptosis in human MDA-MB-231 cells assessed as necrotic cells at 10 uM incubated for 24 hrs by annexin V-FITC and PI staining based flow cytometry analysis (reference value: 0.68 %); assay type: functional
# [16] = Toxicity in orthotopic mouse inoculated with mouse 4T1 cells assessed as appearance of lesions in lung at 10 mg/kg, ip administered every day measured after 14 days by hematoxylin and eosin staining based assay; assay type: organism-based; details: in vivo, 336 h, time 14 day
# MDA-MB-231 [17] = assay: Induction of cell cycle arrest in human MDA-MB-231 cells assessed as accumulation of cells in G2 phase at 10 uM incubated for 24 hrs by PI staining based flow cytometry analysis (reference value: 8.95 %); assay type: functional
# [18] = Acute toxicity in Kunming mouse assessed as mortality at 150 mg/kg, ip single dose; assay type: organism-based; details: in vivo, read-out: Activity
# MDA-MB-231 [19] = assay: Induction of cell cycle arrest in human MDA-MB-231 cells assessed as accumulation of cells in G2/G1 phase at 10 uM incubated for 24 hrs by PI staining based flow cytometry analysis (reference value: 1.80 %); assay type: functional
# MDA-MB-231 [20] = assay: Induction of cell cycle arrest in human MDA-MB-231 cells assessed as accumulation of cells in G1 phase at 10 uM incubated for 24 hrs by PI staining based flow cytometry analysis (reference value: 74.44 %); assay type: functional
# [21] = Acute toxicity in Kunming mouse assessed as pathological changes in lung at 100 to 250 mg/kg, ip single dose by hematoxylin and eosin staining based assay; assay type: organism-based; details: in vivo, dose 100-250 mg/kg
# HepG2 = assay: Antiproliferative activity against human HepG2 cells assessed as inhibition of cell growth measured after 74 hrs by SRB assay; assay type: functional, cell-based; details: HepG2, 74 h
# MDA-MB-231 [22] = assay: Induction of apoptosis in human MDA-MB-231 cells assessed as late apoptotic cells at 10 uM incubated for 24 hrs by annexin V-FITC and PI staining based flow cytometry analysis (reference value: 1.02 %); assay type: functional
# MDA-MB-231 [23] = assay: Induction of cell cycle arrest in human MDA-MB-231 cells assessed as accumulation of cells in S phase at 10 uM incubated for 24 hrs by PI staining based flow cytometry analysis (reference value: 16.61 %); assay type: functional
# 4T1 [24] = assay: Antitumor activity against mouse 4T1 cells inoculated orthotopic mouse assessed as apoptotic cells in tumor tissue by TUNEL assay (reference value: 3.13%); assay type: functional
# [25] = Acute toxicity in female Kunming mouse assessed as clinical signs of toxicity in skin at 100 to 250 mg/kg, ip single dose measured up to 2 weeks; assay type: organism-based; details: in vivo, 336 h, dose 100-250 mg/kg
# MDA-MB-231 [26] = assay: Induction of apoptosis in human MDA-MB-231 cells assessed as early apoptotic cells at 10 uM incubated for 24 hrs by annexin V-FITC and PI staining based flow cytometry analysis (reference value: 4.66 %); assay type: functional
# HeLa [27] = assay: cells; assay type: functional, cell-based; details: Homo sapiens, 74 h
# Description: Antiproliferative activity against human HeLa cells assessed as inhibition of cell growth measured after 74 hrs by SRB assay
# [28] = Acute toxicity in Kunming mouse assessed as pathological changes in spleen at 100 to 250 mg/kg, ip single dose by hematoxylin and eosin staining based assay; assay type: organism-based; details: in vivo, dose 100-250 mg/kg
# [29] = Acute toxicity in male Kunming mouse assessed as clinical signs of toxicity in skin at 100 to 250 mg/kg, ip single dose measured up to 2 weeks; assay type: organism-based; details: in vivo, 336 h, dose 100-250 mg/kg
# [30] = Acute toxicity in Kunming mouse assessed as mortality at 100 mg/kg, ip single dose; assay type: organism-based; details: in vivo
# [31] = Acute toxicity in Kunming mouse assessed as pathological changes in heart at 100 to 250 mg/kg, ip single dose by hematoxylin and eosin staining based assay; assay type: organism-based; details: in vivo, dose 100-250 mg/kg
# [32] = Acute toxicity in male Kunming mouse assessed as clinical signs of toxicity in eyes at 100 to 250 mg/kg, ip single dose measured up to 2 weeks; assay type: organism-based; details: in vivo, 336 h, dose 100-250 mg/kg
# 4T1 [33] = assay: Antitumor activity against mouse 4T1 cells inoculated orthotopic mouse assessed as change in gross appearance of tumor at 10 mg/kg, ip administered every day measured after 14 days; assay type: functional, organism-based; details: time 14.0 day
# [34] = Acute toxicity in female Kunming mouse assessed as body weight gain at 100 to 250 mg/kg, ip single dose measured up to 2 weeks; assay type: organism-based; details: in vivo, 336 h, dose 100-250 mg/kg
# [35] = Toxicity in orthotopic mouse inoculated with mouse 4T1 cells assessed as appearance of lesions in kidney at 10 mg/kg, ip administered every day measured after 14 days by hematoxylin and eosin staining based assay; assay type: organism-based; details: in vivo, 336 h, time 14 day
# MDA-MB-231 [36] = assay: cells; assay type: functional, cell-based; details: Homo sapiens, MDA-MB-231, 74 h
# Description: Antiproliferative activity against human MDA-MB-231 cells assessed as inhibition of cell growth measured after 74 hrs by SRB assay
# [37] = Acute toxicity in male Kunming mouse assessed as drug tolerance at 100 to 250 mg/kg, ip single dose measured up to 2 weeks; assay type: organism-based; details: in vivo, 336 h, dose 100-250 mg/kg
# [38] = Acute toxicity in male Kunming mouse assessed as body weight gain at 100 to 250 mg/kg, ip single dose measured up to 2 weeks; assay type: organism-based; details: in vivo, 336 h, dose 100-250 mg/kg
# 4T1 [39] = assay: Antitumor activity against mouse 4T1 cells inoculated orthotopic mouse assessed as tumor growth inhibition ratio at 10 mg/kg, ip administered every day measured after 14 days; assay type: functional; set-up: scale not given: the % may be the effect or the level left; details: time 14 day
# [40] = Toxicity in orthotopic mouse inoculated with mouse 4T1 cells assessed as appearance of lesions in liver at 10 mg/kg, ip administered every day measured after 14 days by hematoxylin and eosin staining based assay; assay type: organism-based; details: in vivo, 336 h, time 14 day
# [41] = Acute toxicity in Kunming mouse assessed as pathological changes in kidney at 100 to 250 mg/kg, ip single dose by hematoxylin and eosin staining based assay; assay type: organism-based; details: in vivo, dose 100-250 mg/kg
# [42] = Toxicity in orthotopic mouse inoculated with mouse 4T1 cells assessed as body weight loss at 10 mg/kg, ip administered every day measured after 14 days; assay type: organism-based; details: in vivo, 336 h, time 14 day
# [43] = Toxicity in orthotopic mouse inoculated with mouse 4T1 cells assessed as appearance of lesions in heart at 10 mg/kg, ip administered every day measured after 14 days by hematoxylin and eosin staining based assay; assay type: organism-based; details: in vivo, 336 h, time 14 day
# A549 [44] = assay: cells; assay type: functional, cell-based; details: Homo sapiens, A549, 74 h
# Description: Antiproliferative activity against human A549 cells assessed as inhibition of cell growth measured after 74 hrs by SRB assay
# 4T1 [45] = assay: Antitumor activity against mouse 4T1 cells inoculated orthotopic mouse assessed as decrease in tumor weight at 10 mg/kg, ip administered every day measured after 14 days; assay type: functional, organism-based; details: time 14.0 day
# [46] = Toxicity in orthotopic mouse inoculated with mouse 4T1 cells assessed as sparse and dull hair at 10 mg/kg, ip administered every day measured after 8 days; assay type: organism-based; details: in vivo, 192 h, time 8 day
# [47] = Toxicity in orthotopic mouse inoculated with mouse 4T1 cells assessed as liver cell swelling at 10 mg/kg, ip administered every day measured after 14 days by hematoxylin and eosin staining based assay; assay type: organism-based; details: in vivo, 336 h, time 14 day
# [48] = Toxicity in orthotopic mouse inoculated with mouse 4T1 cells assessed as hardened skin at 10 mg/kg, ip administered every day measured after 8 days; assay type: organism-based; details: in vivo, 192 h, time 8 day
smiles,measurement,setting,value
Cc1ccc(S(=O)(=O)N2CCOC23C=CC(=O)C=C3)cc1,IC50,MDA-MB-231 [1],390 nM
same,IC50,HeLa [2],710 nM
same,IC50,A549 [3],330 nM
Cc1ccc(S(=O)(=O)N2C(=O)COC23C=CC(=O)C=C3)cc1,Activity,4T1 [4],376 mm3
same,Activity,[5],Non-Toxic
same,Activity,[6],Non-Toxic
same,mortality,[7],50%
same,Activity,[8],Non-Toxic
same,Activity,[9],Non-Toxic
same,mortality,[10],60%
same,viability at 10 µM,MDA-MB-231 [11],85.4%
same,Activity,[12],Non-Toxic
same,Activity,[13],Non-Toxic
same,Activity,[14],Non-Toxic
same,Activity,MDA-MB-231 [15],0.72%
same,Activity,[16],Non-Toxic
same,Activity,MDA-MB-231 [17],10.29%
same,mortality,[18],30%
same,Activity,MDA-MB-231 [19],1.8%
same,Activity,MDA-MB-231 [20],65.65%
same,Activity,[21],Non-Toxic
same,IC50,HepG2,> 10000 nM
same,Activity,MDA-MB-231 [22],3%
same,Activity,MDA-MB-231 [23],24.06%
same,Activity,4T1 [24],95.64%
same,Activity,[25],Non-Toxic
same,Activity,MDA-MB-231 [26],10.9%
same,IC50,HeLa [27],180 nM
same,Activity,[28],Non-Toxic
same,Activity,[29],Non-Toxic
same,Activity,[30],Non-Toxic
same,Activity,[31],Non-Toxic
same,Activity,[32],Non-Toxic
same,Activity,4T1 [33],Active
same,Activity,[34],Non-Toxic
same,Activity,[35],Non-Toxic
same,IC50,MDA-MB-231 [36],70 nM
same,Activity,[37],Non-Toxic
same,Activity,[38],Non-Toxic
same,Activity,4T1 [39],39%
same,Activity,[40],Non-Toxic
same,Activity,[41],Non-Toxic
same,Activity,[42],Non-Toxic
same,Activity,[43],Non-Toxic
same,IC50,A549 [44],110 nM
same,Activity,4T1 [45],Active
COc1cccc2c1C(=O)c1c(O)c3c(c(O)c1C2=O)C[C@@](O)(C(=O)CO)C[C@@H]3O[C@H]1C[C@H](N)[C@H](O)[C@H](C)O1 [DOXORUBICIN],Activity,4T1 [4],265 mm3
same,Activity,[46],Toxic
same,Activity,[47],Toxic
same,Activity,4T1 [24],82.57%
same,Activity,[48],Toxic
same,Activity,4T1 [33],Active
same,Activity,4T1 [39],50%
same,Activity,[42],19%
same,Activity,4T1 [45],Active
